Measured values taken from patent US6555692B1, “Preparation and use of bifunctional molecules having DNA sequence binding specificity” (California Institute of Technology, priority 1996, dated 2003).

Tests used:
[1] = system: 5′-AACCAAGTCTTGGTA-3′; assay: Association constants, recognition of 15 base pairs; details: for Specificity Center mismatch: match vs 5′-AACCAACTGTTGGTA-3′; for Specificity Edge mismatch: match vs 5′-AACCAAGTCTTGCGA-3′; for Ka 5′-AACCAAGTCTTGGTA-3′: Table 7, C3-OH polyamides, match site; for Specificity 5′-AACCAACTGTTGGTA-3′: Table 7, center mismatch; for Specificity 5′-AACCAAGTCTTGCGA-3′: Table 7, edge mismatch
[2] = system: 5′-TGTCAAGACA-3′; assay: Recognition of 9-11 base pairs (Table 9); type: binding; details: 22° C. and pH 7.0
Excerpt: (§1) Table 9 illustrates recognition of recognition of 9-11 base pairs by ImPyPy-X-ImPyPy-β-Dp.

[3] = system: 5′-TGTCAGACA-3′; assay: Recognition of 9-11 base pairs (Table 9); type: binding; details: 22° C. and pH 7.0
Excerpt: as §1

[4] = system: 5′-gcggtTGTCAacccg-3′; assay: Recognition of 9-11 base pairs (Table 9); type: binding; details: 22° C. and pH 7.0
Excerpt: as §1

[5] = system: 5′-TGTCAAAGACA-3′; assay: Recognition of 9-11 base pairs (Table 9); type: binding; details: 22° C. and pH 7.0
Excerpt: as §1

[6] = Table 6, ImImPy-γ-PyPyPy-X-ImPyPy-β-Dp
[7] = Table 5, ImPyPy-X-ImImPy-γ-PyPyPy-β-Dp, 24° C., pH 7.0

CN(C)CCCNC(=O)CCNC(=O)c1cc(NC(=O)c2cc(NC(=O)c3nc(NC(=O)CCCCNC(=O)c4cc(NC(=O)c5cc(NC(=O)c6cc(NC(=O)CCCNC(=O)c7cc(NC(=O)c8nc(NC(=O)c9nccn9C)cn8C)cn7C)cn6C)cn5C)cn4C)cn3C)cn2C)cn1C [ImImPy-γ-PyPyPy-C5-ImPyPy-β-Dp, ImImPy-γ-PyPyPy-X-ImPyPy-β-Dp]
Ka Match [1, 6]: 1e+09 M⁻¹
Specificity Center mismatch ([1]; Table 6): 2
Specificity Edge mismatch ([1]; Table 6): 2

CN(C)CCCNC(=O)CCNC(=O)c1cc(NC(=O)c2cc(NC(=O)c3nc(NC(=O)CCCCCNC(=O)c4cc(NC(=O)c5cc(NC(=O)c6cc(NC(=O)CCCNC(=O)c7cc(NC(=O)c8nc(NC(=O)c9nccn9C)cn8C)cn7C)cn6C)cn5C)cn4C)cn3C)cn2C)cn1C [ImImPy-γ-PyPyPy-C6-ImPyPy-β-Dp, ImImPy-γ-PyPyPy-X-ImPyPy-β-Dp]
Ka Match [1, 6]: 2e+08 M⁻¹
Specificity Center mismatch ([1]; Table 6): 1
Specificity Edge mismatch ([1]; Table 6): 2

CN(C)CCCNC(=O)CCNC(=O)c1cc(NC(=O)c2cc(NC(=O)c3nc(NC(=O)CCCCCCNC(=O)c4cc(NC(=O)c5cc(NC(=O)c6cc(NC(=O)CCCNC(=O)c7cc(NC(=O)c8nc(NC(=O)c9nccn9C)cn8C)cn7C)cn6C)cn5C)cn4C)cn3C)cn2C)cn1C [ImImPy-γ-PyPyPy-C7-ImPyPy-β-Dp, ImImPy-γ-PyPyPy-X-ImPyPy-β-Dp]
Ka Match [1, 6]: 1e+09 M⁻¹
Specificity Center mismatch ([1]; Table 6): 1
Specificity Edge mismatch ([1]; Table 6): 1

CN(C)CCCNC(=O)CCNC(=O)c1cc(NC(=O)c2cc(NC(=O)c3nc(NC(=O)CCNC(=O)CCNC(=O)c4cc(NC(=O)c5cc(NC(=O)c6cc(NC(=O)CCCNC(=O)c7cc(NC(=O)c8nc(NC(=O)c9nccn9C)cn8C)cn7C)cn6C)cn5C)cn4C)cn3C)cn2C)cn1C [ImImPy-γ-PyPyPy-β-β-ImPyPy-β-Dp, ImImPy-γ-PyPyPy-X-ImPyPy-β-Dp]
Ka Match [1, 6]: 1e+10 M⁻¹
Specificity Center mismatch ([1]; Table 6): 1
Specificity Edge mismatch ([1]; Table 6): 1

Cn1cc(NC(=O)c2cc(NC(=O)c3cc(NC(=O)CCCNC(=O)c4cc(NC(=O)c5nc(NC(=O)c6nc(NC(=O)CCCCNC(=O)c7cc(NC(=O)c8cc(NC(=O)c9nccn9C)cn8C)cn7C)cn6C)cn5C)cn4C)cn3C)cn2C)cc1C(=O)NCCCO [ImPyPy-C5-ImImPy-γ-PyPyPy-C3—OH]
Ka 5′-AACCAAGTCTTGGTA-3′ [1]: 3 × 10^7
Specificity 5′-AACCAACTGTTGGTA-3′ [1]: >3
Specificity 5′-AACCAAGTCTTGCGA-3′ [1]: >3

CN(C)CCCNC(=O)CCNC(=O)c1cc(NC(=O)c2cc(NC(=O)c3cc(NC(=O)CCCNC(=O)c4cc(NC(=O)c5nc(NC(=O)c6nc(NC(=O)CCCCNC(=O)c7cc(NC(=O)c8cc(NC(=O)c9nccn9C)cn8C)cn7C)cn6C)cn5C)cn4C)cn3C)cn2C)cn1C [ImPyPy-C5-ImImPy-γ-PyPyPy-β-Dp, ImPyPy-X-ImImPy-γ-PyPyPy-β-Dp]
Ka Match [1, 7]: 4e+08 M⁻¹
Specificity Center mismatch ([1]; Table 5): 11
Specificity Edge mismatch ([1]; Table 5): 19

CN(C)CCCNC(=O)CCNC(=O)c1cc(NC(=O)c2cc(NC(=O)c3nc(NC(=O)CCCCNC(=O)c4cc(NC(=O)c5cc(NC(=O)c6nccn6C)cn5C)cn4C)cn3C)cn2C)cn1C [ImPyPy-C5-ImPyPy-β-Dp]
5′-TGTCAAGACA-3′ [2]: 1 × 10^9
5′-TGTCAGACA-3′ [3]: 2 × 10^8
5′-gcggtTGTCAacccg-3′ [4]: 1 × 10^9
5′-TGTCAAAGACA-3′ [5]: 1 × 10^9

Cn1cc(NC(=O)c2cc(NC(=O)c3cc(NC(=O)CCCNC(=O)c4cc(NC(=O)c5nc(NC(=O)c6nc(NC(=O)CCCCCNC(=O)c7cc(NC(=O)c8cc(NC(=O)c9nccn9C)cn8C)cn7C)cn6C)cn5C)cn4C)cn3C)cn2C)cc1C(=O)NCCCO [ImPyPy-C6-ImImPy-γ-PyPyPy-C3—OH]
Ka 5′-AACCAAGTCTTGGTA-3′ [1]: 3 × 10^7
Specificity 5′-AACCAACTGTTGGTA-3′ [1]: 2
Specificity 5′-AACCAAGTCTTGCGA-3′ [1]: 2

CN(C)CCCNC(=O)CCNC(=O)c1cc(NC(=O)c2cc(NC(=O)c3cc(NC(=O)CCCNC(=O)c4cc(NC(=O)c5nc(NC(=O)c6nc(NC(=O)CCCCCNC(=O)c7cc(NC(=O)c8cc(NC(=O)c9nccn9C)cn8C)cn7C)cn6C)cn5C)cn4C)cn3C)cn2C)cn1C [ImPyPy-C6-ImImPy-γ-PyPyPy-β-Dp, ImPyPy-X-ImImPy-γ-PyPyPy-β-Dp]
Ka Match [1, 7]: 2e+08 M⁻¹
Specificity Center mismatch ([1]; Table 5): 12
Specificity Edge mismatch ([1]; Table 5): 15

CN(C)CCCNC(=O)CCNC(=O)c1cc(NC(=O)c2cc(NC(=O)c3nc(NC(=O)CCCCCNC(=O)c4cc(NC(=O)c5cc(NC(=O)c6nccn6C)cn5C)cn4C)cn3C)cn2C)cn1C [ImPyPy-C6-ImPyPy-β-Dp]
5′-TGTCAAGACA-3′ [2]: 2 × 10^8
5′-TGTCAGACA-3′ [3]: 1 × 10^8
5′-gcggtTGTCAacccg-3′ [4]: 5 × 10^7
5′-TGTCAAAGACA-3′ [5]: 5 × 10^7

CN(C)CCCNC(=O)CCNC(=O)c1cc(NC(=O)c2cc(NC(=O)c3cc(NC(=O)CCCNC(=O)c4cc(NC(=O)c5nc(NC(=O)c6nc(NC(=O)CCCCCCNC(=O)c7cc(NC(=O)c8cc(NC(=O)c9nccn9C)cn8C)cn7C)cn6C)cn5C)cn4C)cn3C)cn2C)cn1C [ImPyPy-C7-ImImPy-γ-PyPyPy-β-Dp, ImPyPy-X-ImImPy-γ-PyPyPy-β-Dp]
Ka Match [1, 7]: 2e+08 M⁻¹
Specificity Center mismatch ([1]; Table 5): 2
Specificity Edge mismatch ([1]; Table 5): 2
